Source: US6087361A, “Aryl-imidazolines and aryl-imidazoles useful as α-2 adrenergic agonists without cardiovascular side effects” (Allergan Sales, Inc., priority 1997, dated 2000)

Key:
I2B = assay: Receptor binding, I2B
I1 imidazoline receptor = I1 imidazoline receptor binding assay, 3H-clonidine, bovine VLM membranes; details: 25° C., 50 min
Description: Fresh bovine brain stems were obtained from a local slaughter house. After removal of pia-arachnoid, the medulla was isolated by dissecting the brain stem about 1 cm posterior and 1 cm caudal to the obex. The ventral quadrants of the medulla excluding the pyramids were used as the VLM. For each preparation, 30 to 40 VLM were used. Initial homogenization was performed in 20 volumes of 5 mM HEPES buffer (pH 7.4 at 4° C.) containing 250 mM sucrose, 50 uM Calpain I inhibitor (Boehginer Mannheim, Indianapolis, Ind.), 100 uM 1,10-phenanthroline (Sigma, St. Louis, Mo.) and 50 uM Pefabloc (Boehginer Mannheim, Indianapolis, Ind.), using Virtis homogenizer at setting 7 with three 10 second pulses, followed by three passes in a teflon-glass tissue homogenizer. The inhibitors were added to prevent degradation by proteases and peptidases. The homogenates were then centrifuged at 1000× g for 10 min and the resulting pellets were re-homogenized and centrifuged. Supernatants resulted from both runs were combined and centrifuged for 20 min at 48000× g. The pellets obtained were resuspended in a teflon-glass homogenizer in 50 mM Tris-HCl with 5 mM EDTA (pH 7.7 at 4° C.), centrifuged, and resuspended in 50 mM Tris-HCl with 25 mM NaCl, pH 7.7 at room temp. To remove endogenous ligands, the homogenate was incubated 30 min at room temp before it was centrifuged for 20 min at 48000× g. The pellets were then washed with 50 mM Tris-HCl buffer, (pH 7.4 at 4° C.) and loaded on top of 5 mM HEPES/0.85 M sucrose (pH 7.4 at 4° C.). Pellets obtained after centrifugation at 48000× g for 20 min were saved. The fatty connective tissue on the top layer was discarded. The partially purified VLM membrane pellets were then washed twice with 50 mM Tris-HCl, pH 7.7 at 4° C., flash frozen in dry ice/acetone slush, and stored at -100° C. until use. Receptor binding experiments were performed within days after the membrane preparation.
I1 imidazoline receptor binding affinity was determined from radioligand binding of ^3 H-clonidine (NEN, Boston, Mass.) to bovine VLM membranes. Specific activity of ^3 H-clonidine was 43 Ci/mmol. Kd of ^3 H-clonidine binding to the I1 imidazoline receptor was determined by saturation experiments and Ki of other ligands studied were determined by competition experiments. The radioligand binding assay was performed in Teflon 96-wells with the Biomek-1000 robotics (Beckman Instruments, Fullerton, Calif.). Each well contained […] ^3 H-Clonidine and 0.3 to 0.5 mg of bovine VLM protein in 5 mM HEPES buffer containing 0.5 mM EGTA and 0.5 mM MgCl2, pH 7.4 (0.1 mM ascorbic acid was added just before the protein). After 50 min of incubation at 25° C., the reaction was terminated by rapid filtration over Whatman GF/B filters treated with 0.1% polyethyleneimine and washed with 12 ml ice cold 50 mM Tris-HCl, pH 7.4 at 4° C. in a Brandel Harvester (Brandel, Gaithersburg, Md.). Both `hot` and `cold` saturation experiments were performed. In `hot` saturation experiments, studies were performed with ^3 H-clonidine ranging from 0.1 to 50 nM. In `cold` saturation experiments, studies were performed with 2 nM ^3 H-clonidine with 20 different concentrations of the unlabeled clonidine, ranging from 0.1 nM to 1 uM unlabeled clonidine. Non specific binding was defined by parallel incubations containing 10^-5 M phentolamine or naphazoline. Imidazoline binding was determined by parallel incubations in which the alpha-adrenergic sites were masked with 10^-5 M norepinephrine. During competition experiments, ligands of 20 concentrations ranged from 10^-11 to 10^-4 were used. Radioactivity was counted in a Beckman LS-3801 scintillation counter. Data were captured and analyzed with Accufit saturation and competition softwares modeled both for one-site and two-site fits (Beckman Instruments, Fullerton, Calif.) using an IBM compatible computer. All experiments were repeated at least twice.

I2A = assay: Receptor binding, I2A
α1 = assay: Receptor binding, [3H]prazosin, human cerebral cortex membranes (HCC); details: 22° C., 30 min
Description: Tissue preparation: Membrane suspensions were prepared from human cerebral cortex ([…], for α1 receptors) obtained from the UCI Organ and Tissue Bank. Briefly, tissues (1 g) were homogenized in 25 mL of ice-cold 5 mM Tris, pH 7.4 with a Polytron homogenizer for 30 sec at setting #7, and centrifuged for
10-12 minutes at 300× g at 4° C. The supernatant was filtered through 2 layers of gauze and diluted 1:2 with 50 mM Tris-HCl buffer, pH 7.4, then centrifuged at 49,000× g for 20 minutes. The pellet fraction was washed 3 times (resuspended in Tris-HCl buffer and centrifuged for 20 minutes; at 49,000× g). The pellet was then stored at -80° C. until the binding assay.
(§1) Binding Studies: The radioligands [^3 H]rauwolscine (specific activity 80 Ci/mmol) and [^3 H]prazosin (specific activity 76 Ci/mmol) were obtained from New England Nuclear, Boston, Mass. Frozen membrane pellet was resuspended in 25 mM glycine/glycine, pH 7.5 and incubated with radioligand under the following conditions: CHO-C10, CHO-RNG, CHO-C4-[^3 H]rauwolscine, 22° C., 30 minutes; RKC-[^3 H]rauwolscine, 0° C., 120 minutes; and, HCC-[^3 H]prazosin, 22° C., 30 minutes in a final volume of 500 ul. At the end of the incubation period, the samples were filtered through glass filters (Whatman GF/B) in a 96 well cell harvester and rapidly washed four times with 4 mL of iced-cold 50 mM Tris-HCl buffer. The filters were then oven dried and transferred to scintillation vials containing 10 mL of Beckman's Ready Protein® scintillation cocktail for counting. […] Protein concentrations were determined with a protein assay kit from Bio Rad. Binding isotherms, equilibrium dissociation and affinity constants were analyzed and determined by the non-linear least squares curve fitting programs EBDA (BioSoft) or AccuFit Competition/Saturation by Beckman.
(§2) The radioligands [^3 H] rauwolscine (specific activity 80 Ci/mmol) and [^3 H] prazosin (specific activity 76 Ci/mmol) were obtained from New England Nuclear, Boston, Mass. Frozen membrane pellet was resuspended in 25 mM glycine/glycine, pH 7.4 and incubated with radioligand under the following conditions: CHO-C10, CHO-RNG, CHO-C4-[^3 H]rauwolscine, 22° C., 30 min.; and, HCC-[^3 H]prazowsin, 22° C., 30 minutes in a final volume of 500 ul. At the end of the incubation period, the samples were filtered through glass fiber filters (Whatman GF/B) in a 96 well cell harvester and rapidly washed four times which 4 mL of iced-cold 50 mM Tris-CHI buffer. The filters were then oven dried and transferred to scintillation vials containing 5 mL of Beckman's Ready Protein® scintillation cocktail for counting. […] Protein concentrations were determined with a protein assay kit from Bio lad. Binding isotherms, equilibrium dissociation and affinity constants were analyzed and determined by the non-linear least squares curve fitting programs AccuFit Competition/Saturation by Beckman.
(§3) Representative compounds of the present invention were tested according to the procedures given above. […] The receptor binding studies and K1 are measures of the affinity of a compound for a particular receptor.

human α2C = target: T1, human α2C (Homo sapiens, UniProt P18825); assay: Receptor binding, [3H]rauwolscine, CHO-C4 cells expressing human α2C; details: CHO-C4, 22° C., 30 min
T1 construct: expressed in transfected cells; host or cells: CHO cells (CHO-C4)
T1 sequence (P18825 1-462): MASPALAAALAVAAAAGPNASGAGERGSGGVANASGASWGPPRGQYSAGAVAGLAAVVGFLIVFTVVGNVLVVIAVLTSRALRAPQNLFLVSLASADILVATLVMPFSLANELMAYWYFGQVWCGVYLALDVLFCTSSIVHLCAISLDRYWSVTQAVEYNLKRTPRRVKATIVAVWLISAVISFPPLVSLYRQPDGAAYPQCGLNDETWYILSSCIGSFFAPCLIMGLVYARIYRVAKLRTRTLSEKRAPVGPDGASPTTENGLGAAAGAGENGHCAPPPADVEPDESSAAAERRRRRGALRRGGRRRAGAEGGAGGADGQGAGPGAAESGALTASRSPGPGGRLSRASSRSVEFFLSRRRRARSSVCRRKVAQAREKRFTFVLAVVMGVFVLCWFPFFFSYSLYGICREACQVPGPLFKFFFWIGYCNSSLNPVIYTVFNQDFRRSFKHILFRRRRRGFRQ
Description: Cell preparation: Chinese hamster ovary (CHO) cells expressing the human α2A and human α2C (CHO-C10 and CHO-C4 respectively) receptors and CHO cells (CHO-RNG) expressing the rat α2B, adrenoceptor were grown to near confluence in Dulbecco's modified Eagle's medium supplemented with 10% fetal bovine serum using standard cell culture methods. Cells were harvested by scraping and placed into cold buffer of the following composition: 50 mM Tris-HCl, 5 mM EDTA, pH 7.4). […] The pellet fraction was washed (resuspended in Tris-HCl, pH 8 buffer and centrifuged for 15-20 minutes at 49,000× g) 2 times and stored at -100° until binding assay.
as §1, §2, §3

[1] = rabbit, in vivo
[2] = system: imidazoline receptors and α2 adrenoceptors; details: cited from earlier work
α2 receptors = details: cited from earlier work
[3] = cited from earlier work
α2A = details: cited from earlier work
α1 receptors = details: prazosin vs yohimbine; cited from earlier work

Ki (I2B)	Ki (I1 imidazoline receptor)	Ki (I2A)	Ki (α1)	Structure (SMILES)	further results
100000 nM	56 nM	100 µM	38.6 µM	COc1nc(C)nc(Cl)c1NC1=NCCN1 [Example 6]	
9280 nM	5300 nM	27 µM	14.8 µM	Cc1c(Nc2ncc[nH]2)ccc2c1NCCO2 [Example 17]	
179 nM	13 nM	6.18 µM	7.61 µM	COc1ccc(Nc2ncc[nH]2)c(C)c1 [Example 19]	
686 nM	444 nM	7.71 µM	2.15 µM	Cc1c(Nc2ncc[nH]2)ccc2c1OCCO2 [Example 21]	
2690 nM	7420 nM	12.9 µM	0.199 µM	Cc1cc(C(C)(C)C)c(O)c(C)c1CC1=NCCN1 [Example 23]	
36 nM	227 nM	6.37 µM	30.6 µM	Cc1c(Nc2ncc[nH]2)ccc2nccnc12 [Example 24]	Ki (human α2C): 212 nM
				Clc1cccc(Cl)c1N=C1NCCN1 [clonidine]	IOP of the untreated eye (systemic effect) [1]: the IOP of the untreated eye is lowered to the same extent as the treated eye; binding to α2 and imidazoline receptors (in words) [2]: binds to both α2 and imidazoline receptors; α2 adrenergic mechanism of action (in words) (α2 receptors): centrally acting α2 adrenergic partial agonist; cardiovascular effect (in words) ([3]; in vivo): hypotensive cardiovascular effects
				Cc1cccc([C@H](C)c2cnc[nH]2)c1C [dexmedetomidine]	α2A selectivity (in words) (α2A): a2A selective
				COc1cc2nc(N3CCN(C(=O)c4ccco4)CC3)nc(N)c2cc1OC [prazosin]	relative potency at α1 receptors (in words) (α1 receptors): more potent that yohimbine
				C1COC(NC(C2CC2)C2CC2)=N1 [rilmenidine]	selectivity for imidazoline receptors (in words) [2]: more selective for imidazoline receptors than for α2 -adrenoceptors; side effects compared to clonidine ([3]; equihypotensive doses): less bradycardia and reduction in cardiac output, less sedation, and little or no antinociceptive action compared to clonidine
				COC(=O)[C@@H]1[C@H]2C[C@H]3c4[nH]c5ccccc5c4CCN3C[C@@H]2CC[C@@H]1O [yohimbine]	relative potency at α2 receptors (in words) (α2 receptors; yohimbine vs prazosin): more potent than prazosin

Structure (SMILES)	Ki (I2B)	Ki (I1 imidazoline receptor)	Ki (I2A)	Ki (α1)	further results
Clc1cccc(Cl)c1NC1=NCCN1 [Example 2]	12500 nM	8.9 nM	10 µM		
Brc1c(NC2=NCCN2)ccc2nccnc12 [Example 5]	614 nM	17 nM	7.19 µM	1.85 µM	
